From ChEMBL document CHEMBL2417397, “Synthesis and biological properties of new N-Mannich bases derived from 3-methyl-3-phenyl- and 3,3-dimethyl-succinimides. Part V” (Eur J Med Chem, 2013)
Activity calls are given as the source filed them. The rule behind the calls is not given here.

Legend:
[1] = Neurotoxicity in po dosed Sprague-Dawley albino rat at 30 mg/kg, po after 0.25 to 4 hrs by rotarod test; type: toxicity, organism-based; parameters: dose 30 mg/kg, route oral; conditions: in vivo
[2] = test system: Rattus norvegicus; assay: Anticonvulsant activity in po dosed Sprague-Dawley albino rat assessed as protection against maximal electroshock-induced seizures after 0.25 to 4 hrs; type: functional
[3] = test system: Mus musculus; assay: Neurotoxicity in CF-1 albino mouse at 300 mg/kg, ip after 4 hrs by rotarod test; type: toxicity, organism-based; parameters: dose 300 mg/kg, route intraperitoneal; conditions: in vivo
[4] = Neurotoxicity in ip dosed CF-1 albino mouse after 0.5 hrs by rotarod test; type: toxicity, organism-based; conditions: CF-1, mouse, in vivo
[5] = test system: Mus musculus; assay: Anticonvulsant activity in ip dosed CF-1 albino mouse assessed as protection against maximal electroshock-induced seizures after 4 hrs; type: functional
[6] = test system: Mus musculus; assay: Anticonvulsant activity in CF-1 albino mouse assessed as protection against maximal electroshock-induced seizures at 300 mg/kg, ip after 0.5 hrs; type: functional, organism-based; parameters: dose 300 mg/kg
[7] = organism: Rattus norvegicus; assay: Protective index, ratio of TD50 for Sprague-Dawley albino rat by rotarod test to ED50 for Sprague-Dawley albino rat; type: functional
[8] = test system: Vibrio harveyi; assay: Induction of mutagenecity in Vibrio harveyi BB7XM; type: organism-based; conditions: in vivo
[9] = test system: Vibrio harveyi; assay: Induction of mutagenecity in Vibrio harveyi BB7M; type: organism-based; conditions: in vivo
[10] = test system: Vibrio harveyi; assay: Induction of mutagenecity in Vibrio harveyi BB7X; type: organism-based; conditions: in vivo
[11] = test system: Vibrio harveyi; assay: Induction of mutagenecity in Vibrio harveyi BB7; type: organism-based; conditions: in vivo
[12] = test system: Mus musculus; assay: Anticonvulsant activity in CF-1 albino mouse assessed as protection against maximal electroshock-induced seizures at 300 mg/kg, ip after 4 hrs; type: functional, organism-based; parameters: dose 300 mg/kg
[13] = Neurotoxicity in ip dosed CF-1 albino mouse after 4 hrs by rotarod test; type: toxicity, organism-based; conditions: CF-1, mouse, in vivo
[14] = test system: Vibrio harveyi; assay: Antimutagenic activity in Vibrio harveyi BB7XM assessed as inhibition of 4-nitroquinoline-N-oxide-induced mutation; type: functional
[15] = test system: Vibrio harveyi; assay: Antimutagenic activity in Vibrio harveyi BB7M assessed as inhibition of 4-nitroquinoline-N-oxide-induced mutation; type: functional
[16] = test system: Vibrio harveyi; assay: Antimutagenic activity in Vibrio harveyi BB7X assessed as inhibition of 4-nitroquinoline-N-oxide-induced mutation; type: functional
[17] = test system: Vibrio harveyi; assay: Antimutagenic activity in Vibrio harveyi BB7 assessed as inhibition of 4-nitroquinoline-N-oxide-induced mutation; type: functional
[18] = test system: Mus musculus; assay: Neurotoxicity in CF-1 albino mouse at 300 mg/kg, ip after 0.5 hrs by rotarod test; type: toxicity, organism-based; parameters: dose 300 mg/kg, route intraperitoneal; conditions: in vivo
[19] = test system: Rattus norvegicus; assay: Neurotoxicity in Sprague-Dawley albino rat assessed as motor impairment at 30 mg/kg, po; type: toxicity, organism-based; parameters: dose 30 mg/kg, route oral; conditions: in vivo
[20] = test system: Rattus norvegicus; assay: Anticonvulsant activity in Sprague-Dawley albino rat assessed as protection against maximal electroshock-induced seizures at 30 mg/kg, po after 4 hrs; type: functional
[21] = test system: Rattus norvegicus; assay: Anticonvulsant activity in Sprague-Dawley albino rat assessed as protection against maximal electroshock-induced seizures at 30 mg/kg, po after 2 hrs; type: functional
[22] = test system: Rattus norvegicus; assay: Anticonvulsant activity in Sprague-Dawley albino rat assessed as protection against maximal electroshock-induced seizures at 30 mg/kg, po after 1 hr; type: functional
[23] = test system: Rattus norvegicus; assay: Anticonvulsant activity in Sprague-Dawley albino rat assessed as protection against maximal electroshock-induced seizures at 30 mg/kg, po after 0.5 hrs; type: functional
[24] = test system: Rattus norvegicus; assay: Anticonvulsant activity in Sprague-Dawley albino rat assessed as protection against maximal electroshock-induced seizures at 30 mg/kg, po after 0.25 hrs; type: functional
[25] = test system: Rattus norvegicus; assay: Anticonvulsant activity in Sprague-Dawley albino rat assessed as time of peak effect for protection against maximal electroshock-induced seizures at 30 mg/kg, po; type: functional
[26] = test system: Mus musculus; assay: Anticonvulsant activity in CF-1 albino mouse assessed as time of peak effect for protection against maximal electroshock-induced seizures at 30 to 300 mg/kg, ip; type: functional; conditions: dose mg/kg 30-300; route intraperitoneal

Compound: O=C1CC(c2ccccc2Br)C(=O)N1CN1CCN(c2ccc(F)cc2)CC1 (stereo unspecified)
- TD50 [1]: 62.4 mg/kg
- ED50 [2]: 7.4 mg/kg

Compound: CC1(C)CC(=O)N(CN2CCN(c3ccccc3F)CC2)C1=O
- Activity [3]: Non-toxic
- TD50 at 0.5 h [4]: 300 mg/kg
- MED50 [5]: 100 mg/kg
- Activity [6]: inactive

Compound: O=C1CC2(CCc3ccccc3C2)C(=O)N1CN1CCN(c2cccc(Cl)c2)CC1 (stereo unspecified)
- Ratio TD50/ED50 [7]: >25.69
- TD50 [1]: > 400 mg/kg
- ED50 [2]: 15.6 mg/kg

Compound: O=C1CC(c2ccccc2)(c2ccccc2)C(=O)N1CN1CCN(c2cccc(C(F)(F)F)c2)CC1
- Ratio TD50/ED50 [7]: <13.2
- TD50 [1]: < 400 mg/kg
- ED50 [2]: 30 mg/kg

Compound: Cc1ccccc1N1CCN(CN2C(=O)CC(C)(c3ccccc3)C2=O)CC1 (stereo unspecified)
- Activity [8]: Toxic
- Activity [9]: Toxic
- Activity [10]: Non-toxic
- Activity [11]: Non-toxic
- Activity [3]: Non-toxic
- TD50 at 0.5 h [4]: 300 mg/kg
- Activity [12]: inactive
- Activity [6]: inactive

Compound: CC1(C)CC(=O)N(CN2CCN(c3ccccc3)CC2)C1=O
- TD50 at 4 h [13]: 300 mg/kg
- TD50 at 0.5 h [4]: 300 mg/kg
- MED50 [5]: 100 mg/kg
- Activity [6]: inactive

Compound: CC1(C)CC(=O)N(CN2CCN(c3ccccc3Cl)CC2)C1=O
- Activity [3]: Non-toxic
- TD50 at 0.5 h [4]: 100 mg/kg
- Activity [12]: inactive
- Activity [6]: inactive

Compound: CC1(c2ccccc2)CC(=O)N(CN2CCN(c3ccccc3Cl)CC2)C1=O (stereo unspecified)
- inhibition (INH) [14]: 49%
- inhibition (INH) [15]: 47%
- inhibition (INH) [16]: 0%
- inhibition (INH) [17]: 3%
- Activity [8]: Non-toxic
- Activity [9]: Non-toxic
- Activity [10]: Non-toxic
- Activity [11]: Non-toxic
- Activity [3]: Non-toxic
- Activity [18]: Non-toxic
- Activity [12]: inactive
- Activity [6]: inactive

Compound: CCC1(C)CC(=O)NC1=O (stereo unspecified) [ETHOSUXIMIDE]
- inhibition (INH) [14]: 43%
- inhibition (INH) [15]: 43%
- inhibition (INH) [16]: 0%
- inhibition (INH) [17]: 30%
- Activity [8]: Non-toxic
- Activity [9]: Non-toxic
- Activity [10]: Non-toxic
- Activity [11]: Non-toxic

Compound: CC1(c2ccccc2)CC(=O)N(CN2CCN(c3ccccc3F)CC2)C1=O (stereo unspecified)
- TD50 at 4 h [13]: 300 mg/kg
- inhibition (INH) [14]: 35%
- inhibition (INH) [15]: 57%
- inhibition (INH) [16]: 0%
- inhibition (INH) [17]: 25%
- Activity [8]: Non-toxic
- Activity [9]: Non-toxic
- Activity [10]: Non-toxic
- Activity [11]: Non-toxic
- TD50 at 0.5 h [4]: 300 mg/kg
- MED50 [5]: 100 mg/kg
- Activity [6]: inactive

Compound: CC1(C)CC(=O)N(CN2CCN(c3ccc(Cl)c(Cl)c3)CC2)C1=O
- Activity [3]: Non-toxic
- Activity [18]: Non-toxic
- Activity [12]: inactive
- Activity [6]: inactive

Compound: CC1(C)CC(=O)N(CN2CCN(c3ccc(F)cc3)CC2)C1=O
- Activity [3]: Non-toxic
- TD50 at 0.5 h [4]: 300 mg/kg
- Activity [12]: inactive
- Activity [6]: inactive

Compound: COc1cccc(N2CCN(CN3C(=O)CC(C)(C)C3=O)CC2)c1
- Activity [19]: Non-toxic
- Activity [20]: inactive
- Activity [21]: inactive
- Activity [22]: inactive
- Activity [23]: 25%
- Activity [24]: inactive
- Activity [3]: Non-toxic
- TD50 at 0.5 h [4]: 300 mg/kg
- MED50 [5]: 100 mg/kg
- Activity [6]: inactive

Compound: COc1ccccc1N1CCN(CN2C(=O)CC(C)(C)C2=O)CC1
- Activity [3]: Non-toxic
- TD50 at 0.5 h [4]: 300 mg/kg
- Activity [12]: inactive
- Activity [6]: inactive

Compound: CC1(c2ccccc2)CC(=O)N(CN2CCN(c3ccccc3)CC2)C1=O (stereo unspecified)
- inhibition (INH) [14]: 40%
- inhibition (INH) [15]: 38%
- inhibition (INH) [16]: 0%
- inhibition (INH) [17]: 28%
- Activity [8]: Non-toxic
- Activity [9]: Non-toxic
- Activity [10]: Non-toxic
- Activity [11]: Non-toxic
- Activity [3]: Non-toxic
- Activity [18]: Non-toxic
- MED50 [5]: 100 mg/kg
- Activity [6]: inactive

Compound: CC1(c2ccccc2)CC(=O)N(CN2CCN(c3cccc(C(F)(F)F)c3)CC2)C1=O (stereo unspecified)
- TD50 at 4 h [13]: 300 mg/kg
- Activity [18]: Non-toxic
- MED50 [5]: 100 mg/kg
- Activity [6]: inactive

Compound: O=C1NC(=O)C(c2ccccc2)(c2ccccc2)N1 [PHENYTOIN]
- Ratio TD50/ED50 [7]: >3.6
- TD50 [1]: > 100 mg/kg
- Time [25]: 2 h
- Time [26]: 1 h
- Activity [20]: 75%
- Activity [21]: 75%
- Activity [22]: 75%
- Activity [23]: Active
- Activity [24]: 25%

Compound: CC1(C)CC(=O)N(CN2CCN(c3cccc(C(F)(F)F)c3)CC2)C1=O
- TD50 at 4 h [13]: 300 mg/kg
- Activity [19]: Non-toxic
- Activity [20]: Active
- Activity [21]: 50%
- Activity [22]: 25%
- Activity [23]: 75%
- Activity [24]: 25%
- TD50 at 0.5 h [4]: 300 mg/kg
- MED50 [5]: 30 mg/kg
- Activity [6]: inactive

Compound: CC1(c2ccccc2)CC(=O)N(CN2CCN(c3ccc(Cl)cc3)CC2)C1=O (stereo unspecified)
- inhibition (INH) [14]: 43%
- inhibition (INH) [15]: 43%
- inhibition (INH) [16]: 0%
- inhibition (INH) [17]: 6%
- Activity [8]: Non-toxic
- Activity [9]: Non-toxic
- Activity [10]: Non-toxic
- Activity [11]: Non-toxic
- Activity [19]: Non-toxic
- Activity [20]: 75%
- Activity [21]: 75%
- Activity [22]: 75%
- Activity [23]: inactive
- Activity [24]: inactive
- Activity [3]: Non-toxic
- Activity [18]: Non-toxic
- MED50 [5]: 100 mg/kg
- Activity [6]: inactive

Compound: CC1(C)CC(=O)N(CN2CCN(c3cccc(Cl)c3)CC2)C1=O
- TD50 at 4 h [13]: 300 mg/kg
- TD50 at 0.5 h [4]: 300 mg/kg
- Activity [12]: inactive
- Activity [6]: inactive

Compound: Cc1cccc(N2CCN(CN3C(=O)CC(C)(C)C3=O)CC2)c1
- Activity [3]: Non-toxic
- TD50 at 0.5 h [4]: 300 mg/kg
- Activity [12]: inactive
- Activity [6]: inactive

Compound: CC1(C)CC(=O)N(CN2CCN(c3ccc(Cl)cc3)CC2)C1=O
- Activity [3]: Non-toxic
- TD50 at 0.5 h [4]: 300 mg/kg
- Activity [12]: inactive
- Activity [6]: inactive

Compound: Cc1ccccc1N1CCN(CN2C(=O)CC(C)(C)C2=O)CC1
- TD50 at 4 h [13]: 300 mg/kg
- TD50 at 0.5 h [4]: 300 mg/kg
- Activity [12]: inactive
- Activity [6]: inactive
